Assay results published in US10466233B2, “Genetically encoded probe for quantification of lactate and methods for quantifying metabolic rates and lactate transport” (CENTRO DE ESTUDIOS CIENTIFICOS DE VALDIVIA, priority 2012, dated 2019).

Experiments:
[1] = molecular target: T1, mitochondrial pyruvate transporter (PT) (Homo sapiens, UniProt O95563+Q9Y5U8); assay: Intracellular lactate in HEK293 cells after inhibition of the mitochondrial pyruvate transporter; assay type: cell-based; conditions: concentration that does not affect MCT function
T1 construct: endogenous in cells; host or cells: HEK293 cells (ATCC) expressing the lactate sensor
T1 sequence (Q9Y5U8 1-109): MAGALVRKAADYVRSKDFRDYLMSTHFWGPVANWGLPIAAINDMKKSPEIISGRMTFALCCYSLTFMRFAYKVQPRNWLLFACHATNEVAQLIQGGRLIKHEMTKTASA
T1 sequence (O95563 1-127): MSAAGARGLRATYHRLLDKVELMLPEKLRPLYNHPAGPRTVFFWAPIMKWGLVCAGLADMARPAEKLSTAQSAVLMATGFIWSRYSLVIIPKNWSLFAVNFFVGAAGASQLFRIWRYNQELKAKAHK
Description: (§1) Animals and Cell Cultures.
(§2) Fluorescence Measurements.
Because the reaction catalyzed by LDH is relatively fast, the cytosolic pools of lactate and pyruvate are tightly linked, and variations in pyruvate are faithfully mimicked by lactate. Accordingly, perturbation of the steady-state by addition of a blocker of the mitochondrial pyruvate transporter (PT) will cause intracellular lactate accumulation at a rate equal to the rate of pyruvate consumption by mitochondria.
To further validate methods 2 and 3, the blockers were applied sequentially and a mathematical model based on the kinetic model described in FIG. 14 was fitted to the data. The responses of intracellular lactate to transient inhibitions of the PT with 4-CIN (200 μM) and the MCTs with phloretin (50 μM) were measured in the same HEK293 cell in the presence of 25 mM glucose and no extracellular lactate. The straight lines represent the slopes of the lactate increases fitted by linear regression during the first minute (4-CIN) or during the whole exposure (phloretin). The red line represents the best fit of the kinetic model to the data, as described in Experimental Procedures, assuming full inhibition of the transporters. […] PT and lactate release rates respectively estimated from the initial slopes of lactate increase after transporter inhibition were over 90% of those estimated by modeling. […]

[2] = system: MCT; assay: Intracellular lactate in HEK293 cells after MCT blockage; assay type: cell-based
Protocol: as §1, §2
The diagram in FIG. 14 illustrates how the intracellular concentration of lactate is determined by the dynamic balance between pyruvate production by glycolysis, pyruvate consumption by mitochondria and lactate exchange through MCTs. In cells that are exporting lactate, perturbation of the steady state by addition of a blocker of the MCT is expected to cause lactate accumulation. In cells that are net lactate importers, an MCT-blocker is expected to cause depletion in intracellular lactate. In both cases, the rate of change will be equal to the rate of lactate production or consumption. […] Phloretin is also known to inhibit GLUT glucose transporters, however this should not compromise the analysis of astrocytes, neurons, or the cell lines so far characterized, which maintain resting intracellular glucose at levels well above the Km of hexokinase (Bittner et al., 2010; Takanaga et al., 2008; Fehr et al., 2003). […]
To further validate methods 2 and 3, the blockers were applied sequentially and a mathematical model based on the kinetic model described in FIG. 14 was fitted to the data. The responses of intracellular lactate to transient inhibitions of the PT with 4-CIN (200 μM) and the MCTs with phloretin (50 μM) were measured in the same HEK293 cell in the presence of 25 mM glucose and no extracellular lactate. […]

[3] = system: oxidative phosphorylation; conditions: astrocytes, 5 mM
Protocol: (§5) Animals and Cell Cultures. Animals used were mixed F1 male mice (C57BL/6J×CBA/J), kept in an animal room under Specific Pathogen Free (SPF) conditions at a room temperature of 20±2° C., in a 12/12 h light/dark cycle with free access to food and water. […] Mixed cortical cultures of neuronal and glial cells (1-3 day-old neonates) were prepared as described (Loaiza et al., 2003). […] Cultures were transfected at 60% confluence using Lipofectamine 2000 (Gibco) or alternatively, exposed to 5×10^6 PFU of Ad lactate sensor of the present invention (Vector Biolab), and studied after 24-72 h.
(§6) Fluorescence Measurements. […] Cells were imaged at room temperature (22-25° C.) in a 95% air/5% CO2-gassed solution of the following composition (in mM): 112 NaCl, 1.25 CaCl2, 1.25 MgSO4, 1-2 glucose, 10 HEPES, 24 NaHCO^3, pH 7.4, with 3 mM KCl (astrocytes) or 5 mM KCl (HEK and T98G) using an upright Olympus FV1000 Confocal Microscope equipped with a 20× water immersion objective (N.A. 1.0) and a 440 nm solid-state laser. Alternatively, cells were imaged with an Olympus IX70 or with an Olympus BX51 microscope equipped with a 40× oil-immersion objective (NA 1.3) or with a 20× water-immersion objective (NA 0.95). […]

[4] = molecular target: T2, lactate sensor Variant 7: mTFP - full length L1dR from E. coli, no linkers - Venus, SEQ ID NO 7 (Escherichia coli, UniProt P0ACL7); assay: Fluorescence ratio (FRET) dose-response of purified lactate nanosensor to lactate; assay type: binding; conditions: millimolar levels
T2 construct: His tag (inferred from the nickel-resin purification); made in house; host or cells: E. coli BL21 (DE3)
Protocol: Also surprising was the observation that the DNA-binding domain is important for the FRET change, and that the sensors with no linkers are more responsive (FIG. 4). […] It contains the full length L1dR from E. coli and no linkers. […] The affinity constant of L1dR for L-lactate is not known. […] This unique property of L1dR confers the lactate sensor the desirable ability of reporting across four orders of magnitude (from 1 μM to 10 mM), instead of the two orders afforded by one-site sensors.
(§3) Protein Purification. Plasmid constructs were transformed into E. coli BL21 (DE3). A single colony was inoculated in 100 ml of LB medium with […] ampicillin (without IPTG) and shaken in the dark for 2-3 days. Cells were collected by centrifugation at 5000 rpm (4° C.) for 10 min and disrupted by sonication (Hielscher Ultrasound Technology) in 5 mL of Tris-HCl buffer pH 8.0. A cell-free extract was obtained by centrifugation at 10,000 rpm (4° C.) for 1 hour and filtering of the supernatant (0.45 μm). Proteins were purified using a Nickel resin (His Bin® from Novagen) as recommended by the manufacturer. Eluted proteins were quantified using the Biuret method and stored at −20° C. in 20% glycerol.
as §2

[5] = system: monocarboxylate transporter (MCT) in astrocytes; assay: Astrocytic lactate uptake via MCT monitored with the lactate sensor; assay type: cell-based, mouse; conditions: 1 mM lactate
Description: as §1, §2
(§4) By controlling the exchange of lactate between cells and the interstitial space, MCTs are nodal points of tissue metabolism. MCTs catalyze the stoichiometric translocation of lactate and a proton and their activity can be measured with single-cell resolution by monitoring intracellular pH with a dye such as BCECF. However, 99.9% of protons are bound to proteins, phospholipids and other sites, and are exchanged through many transporters other than the MCT, which makes pH an imperfect proxy for lactate. To compare the performances of the lactate sensor of the present invention and BCECF, we chose astrocytes. When expressed in astrocytes, the lactate sensor of the present invention responded well to extracellular lactate, allowing real-time monitoring of lactate influx and efflux (FIG. 13). […] In contrast, exposure to extracellular lactate produced only a small change in intracellular pH as detected with BCECF (FIG. 15). […] Lactate may also be transported independently of protons through gap junctions (Rouach et al., 2008) and possibly through connexin hemichannels and pannexin channels, fluxes that are invisible to pH measurements and that may now be measured with the present invention.

[6] = system: MCT; assay: Intracellular lactate in astrocytes after MCT blockage; assay type: cell-based, mice; conditions: 50 μM
Protocol: as §1, §2
The diagram in FIG. 14 illustrates how the intracellular concentration of lactate is determined by the dynamic balance between pyruvate production by glycolysis, pyruvate consumption by mitochondria and lactate exchange through MCTs. In cells that are exporting lactate, perturbation of the steady state by addition of a blocker of the MCT is expected to cause lactate accumulation. In cells that are net lactate importers, an MCT-blocker is expected to cause depletion in intracellular lactate. In both cases, the rate of change will be equal to the rate of lactate production or consumption. […] Phloretin is also known to inhibit GLUT glucose transporters, however this should not compromise the analysis of astrocytes, neurons, or the cell lines so far characterized, which maintain resting intracellular glucose at levels well above the Km of hexokinase (Bittner et al., 2010; Takanaga et al., 2008; Fehr et al., 2003). In these cells, glucose consumption remains constant for several minutes in the presence of glucose transporter blockers like phloretin or cytochalasin B (Bittner et al., 2010). Thus, during the first few minutes of phloretin application, the rate of lactate accumulation is not diminished by lack of glucose supply.

[7] = system: MCT; assay: Initial rate of astrocytic lactate uptake measured with the lactate sensor; assay type: cell-based, mice; conditions: 1 mM lactate, 50 μM blocker, astrocytes
Description: as §1, §2, §4

[8] = system: oxidative phosphorylation in astrocytes; assay: Rate of lactate production on inhibition of oxidative phosphorylation, measured with the lactate sensor; conditions: Mus musculus, Astrocyte, read-out: fold increase in the rate of lactate production
Protocol: as §5, §6

[9] = Fluorescence ratio (mTFP/Venus) response of purified lactate sensor to lactate in vitro; assay type: binding; conditions: comparison of sensor variants (FIG. 4)
Protocol: as §3, §2

## N#CC(=Cc1ccc(O)cc1)C(=O)O [Variant 4-CIN, α-Cyano-4-hydroxycinnamate]
[1]
  effect on intracellular lactate: led to an increase in intracellular lactate
[2]; HEK293 cell, 200 μM, 25 mM glucose, no extracellular lactate
  block of MCTs: did not block MCTs to a significant extent

## [N-]=[N+]=[N-].[Na+] [azide, sodium azide]
[3]
  increase in the rate of lactate production: 26±4 fold

## OC[C@H]1OC(O)[C@H](O)[C@@H](O)[C@@H]1O (some centres unmarked) [glucose]
[4]
  change in FRET (specificity): only lactate induced a significant change in FRET

## C[C@H](O)C(=O)O [lactate]
[4]
  change in FRET (specificity): only lactate induced a significant change in FRET
[5]
  initial rate of astrocytic uptake of lactate: 1.6 ± 0.5 µM/s

## O=C(CCc1ccc(O)cc1)c1c(O)cc(O)cc1O [phloretin]
[2]; HEK293 cells, 50 μM
  effect on intracellular lactate: caused the expected increase in intracellular lactate
[6]
  effect on intracellular lactate: caused the expected increase in intracellular lactate
[7]
  inhibition of initial rate of astrocytic lactate uptake: 96±1%

## [N-]=[N+]=[N-] [sodium azide]
[8]
  fold induction at 5000 µM: 26 ± 4

## Variant 7: Most responsive FRET lactate sensor: mTFP, full length L1dR from E. coli, no linkers, Venus; SEQ ID NO 7
[9]
  change in fluorescence ratio in response to lactate: most responsive variant
